Assay results: US20250025490A1, “INDUCTION OF TRAINED IMMUNITY FOR THE TREATMENT OF HYPERPROLIFERATIVE DISORDERS” (priority 2021, published 2025)

Experiments:
peritoneal macrophages = assay: In vitro training and re-stimulation of peritoneal macrophages (Example 2), TNF-α ELISA; format: cell-based, mice; settings: Mdivi-1 10 μM
Experimental: Isolation and culture of peritoneal macrophages. Mice were euthanized with CO2 inhalation and injected i.p. with 5 ml of sterile cold, complete DMEM medium (Sigma Aldrich) followed by gentle massage of the peritoneum. The peritoneal fluid was then collected, centrifuged at 1600 rpm for 5 min. The cell pellet was washed, counted, and plated at appropriate numbers in complete DMEM. The cells were incubated for 2-4 hours at 37° C. and 5% CO2 to allow peritoneal macrophages attached to the plates. The floating cells were aspirated and plates were gently washed with sterile pre-warmed medium and then added with fresh complete DMEM. For comparison studies between different mouse strains, peritoneal cells were stained with viability dye and anti-F4/80 antibodies (Biolegend) and F4/80^+ macrophages were sorted by FACS Aria III (BD Bioscience).
In vitro training and re-stimulation of peritoneal macrophages. Peritoneal macrophages were treated with 25 μg/ml of WGP or polystyrene beads (3 μm, Sigma-Aldrich) and incubated for 24 h at 37°° C. with 5% CO2. Macrophages were then washed with pre-warmed complete DMEM at least twice to remove excess WGP or polystyrene beads, added with fresh complete DMEM and incubated 6 days. On day 7, macrophages were re-stimulated with different stimuli such as LPS (10 ng/ml) (Sigma), tumor cells, tumor cell culture supernatants (40%) or rMIF (100 ng/ml) (kindly provided by Dr. Robert Mitchell) for 24 h. The culture supernatants were harvested and assayed for TNF-α by ELISA. For cell culture supernatants, tumor cell lines including LLC, B16F10, and EL4, and control cell line MLE-12 were used.
These cell lines were cultured (1 million/4 ml complete DMEM) in a 6-well plate and incubated for 72 h. The supernatants were harvested and stored at −80° C. in aliquots.
ELISA for TNF-α and MIF. TNF-α in the culture supernatants was measured using TNF-α ELISA kit (Biolegend) and MIF levels in the culture supernatants were quantified using mouse MIF ELISAkit (R&D Systems) per the manufacturer's instruction.
In vitro training with S1P. Peritoneal macrophages were stimulated with 200 nM or 300 nM of S1P for 24 h at 37° C. and 5% CO2. The macrophages were then washed and allowed for resting. On day 7, the macrophages were stimulated with LPS (10 ng/ml) or LLC culture supernatant (40%) for 24 h and the supernatants were collected for the quantification of TNF-α using ELISA. For another set of in vitro-training experiment, macrophages were trained with S1P in the presence of Mdivi-1 (10 μM) during S1P training and throughout the resting period. Cells were restimulated with LPS and the supernatants were collected to determine TNF-α levels by ELISA.
[…] The inhibitors were further added to the macrophage cultures and incubated at 37° C. and 5% CO2 for 6 more days. On day 7, the macrophages were washed once with pre-warmed complete DMEM and added LPS (10 ng/ml) or LLC culture supernatant (40%) for re-stimulation.

LLC cells = assay: LDH release cytotoxicity assay against LLC cells; settings: Mdivi-1 10 μM, 10:1
Experimental: Cytotoxicity assay. Lung IMs from the PBS vs WGP-trained mice were sorted and co-cultured with LLC cells at different ratios in a 96-well plate. The plates were then incubated at 37° C. with 5% CO2 for 12-16 h. Upon completion of incubation, the supernatants were harvested and assayed for the release of lactate dehydrogenase as per the instructions described in the CyQUANT™ LDH Cytotoxicity Assay Kit (Invitrogen). For the cytotoxicity assay in the presence of Mdivi-1 (10 μM) (Sigma Aldrich), peritoneal macrophages were in vitro trained with PBS or WGP in the presence of Mdivi-1 or DMSO for 6 days. The macrophages were then harvested, counted, and co-cultured with LLC cells at a ratio of 10:1 followed by the lactate dehydrogenase assay for cytotoxicity. In another set of experiments, IMs from the lungs of PBS vs WGP-trained mice were harvested, sorted, and co-cultured with LLC cells (10:1) in the presence of N-acetyl-L-Cysteine (NAC, 1 mM) (Sigma Aldrich) or DMSO and assayed for cytotoxicity.

LLC-GFP tumor cells = assay: BMDM training and adoptive transfer, LLC-GFP challenge; format: in vivo, mice; settings: BMDM trained in presence of Mdivi-1
Excerpt: BMDMs were trained in the presence of Mdivi-1 or DMSO. BMDMs (1×10^6) were then adoptively transferred intravenously to WT mice twice 2 days apart. Two days later recipient mice were challenged with LLC-GFP tumor cells. Mice were euthanized at day 21 post tumor challenge to analyze the tumor burden and T cell phenotype in the lungs.
To examine whether ex vivo beta-glucan trained macrophages could be used for adoptive cell therapy, bone marrow-derived macrophages (BMDM) were used for a proof-of-concept study. To this end, BMDM were trained with WGP beta-glucan for 7 days and then adoptively transferred into naïve mice. Recipient mice were then challenged with LLC-GFP tagged lung cancer cells. Mice were euthanized at day 21 (FIG. 15A).

Structure (SMILES): COc1cc(-n2c(=S)[nH]c3ccccc3c2=O)c(Cl)cc1Cl [Mdivi-1]
- effect on S1P-induced trained immunity (TNF-α) (peritoneal macrophages; LPS): abrogated S1P-induced trained immunity
- effect on WGP-mediated trained responses (TNF-α) (peritoneal macrophages; LPS or LLC supernatants): abrogated WGP-mediated trained responses
- effect on cytotoxicity of WGP-trained peritoneal macrophages (LLC cells): abrogated WGP-mediated mtROS production (FIG. 14D) and cytotoxicity against tumor cells
- effect on WGP-trained BMDM-mediated effect (LLC-GFP tumor cells): completely abrogated WGP-trained BDMD-mediated effect
